Calls of active or inactive are those of the source.

In experiment [1] the target is Tyrosine-protein kinase FRK (Homo sapiens, UniProt P42685).
Experiment [2] deals with T1, MAP kinase-activated protein kinase 5 (Homo sapiens, UniProt Q8IW41).
T1 sequence (Q8IW41 whole entry): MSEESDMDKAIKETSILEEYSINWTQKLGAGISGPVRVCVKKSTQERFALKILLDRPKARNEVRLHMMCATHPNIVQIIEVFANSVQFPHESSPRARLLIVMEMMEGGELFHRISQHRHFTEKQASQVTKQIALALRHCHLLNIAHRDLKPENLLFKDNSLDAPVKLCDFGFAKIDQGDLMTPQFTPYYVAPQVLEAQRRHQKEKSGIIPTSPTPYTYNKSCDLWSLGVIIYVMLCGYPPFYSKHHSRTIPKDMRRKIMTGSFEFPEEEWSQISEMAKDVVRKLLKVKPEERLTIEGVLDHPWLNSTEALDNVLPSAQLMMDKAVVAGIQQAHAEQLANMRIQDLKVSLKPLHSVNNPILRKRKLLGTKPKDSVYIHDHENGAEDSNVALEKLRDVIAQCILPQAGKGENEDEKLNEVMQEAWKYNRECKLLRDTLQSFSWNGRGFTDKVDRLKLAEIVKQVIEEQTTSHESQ

In experiment [3] the target is T2, Ras-related protein Rab-10 (Homo sapiens, UniProt P61026).
T2 sequence (P61026 whole entry): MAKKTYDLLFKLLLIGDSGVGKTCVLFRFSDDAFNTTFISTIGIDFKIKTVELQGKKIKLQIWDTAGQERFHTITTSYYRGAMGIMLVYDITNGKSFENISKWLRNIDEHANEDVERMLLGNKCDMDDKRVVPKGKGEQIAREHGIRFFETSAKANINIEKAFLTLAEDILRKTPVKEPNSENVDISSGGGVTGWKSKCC

Experiment [4] addresses Protein kinase C alpha type (Homo sapiens, UniProt P17252).
In experiment [5] the target is T3, Mitogen-activated protein kinase kinase kinase 2 (Homo sapiens, UniProt Q9Y2U5).
T3 sequence (Q9Y2U5 whole entry): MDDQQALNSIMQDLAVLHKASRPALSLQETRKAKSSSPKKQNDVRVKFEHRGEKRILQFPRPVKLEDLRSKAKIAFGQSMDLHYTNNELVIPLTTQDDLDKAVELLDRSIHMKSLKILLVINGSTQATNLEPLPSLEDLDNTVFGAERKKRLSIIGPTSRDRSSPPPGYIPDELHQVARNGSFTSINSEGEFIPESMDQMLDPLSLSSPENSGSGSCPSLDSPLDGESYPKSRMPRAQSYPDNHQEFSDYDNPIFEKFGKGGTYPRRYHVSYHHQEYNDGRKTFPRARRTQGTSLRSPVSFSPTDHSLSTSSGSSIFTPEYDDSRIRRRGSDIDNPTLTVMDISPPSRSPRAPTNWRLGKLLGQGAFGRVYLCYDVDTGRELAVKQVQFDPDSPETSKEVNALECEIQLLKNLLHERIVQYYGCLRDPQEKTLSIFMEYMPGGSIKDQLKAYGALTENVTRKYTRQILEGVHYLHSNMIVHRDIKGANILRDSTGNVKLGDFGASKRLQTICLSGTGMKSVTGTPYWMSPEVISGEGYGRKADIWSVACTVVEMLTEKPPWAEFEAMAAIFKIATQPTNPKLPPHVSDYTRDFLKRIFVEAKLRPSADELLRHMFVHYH

For a further experiment, the target named is GTP-binding protein 4 (Homo sapiens, UniProt Q9BZE4).
Experiment [6] deals with T4, Bifunctional phosphoribosylaminoimidazole carboxylase/phosphoribosylaminoimidazole succinocarboxamide synthetase (Homo sapiens, UniProt P22234).
T4 sequence (P22234 whole entry): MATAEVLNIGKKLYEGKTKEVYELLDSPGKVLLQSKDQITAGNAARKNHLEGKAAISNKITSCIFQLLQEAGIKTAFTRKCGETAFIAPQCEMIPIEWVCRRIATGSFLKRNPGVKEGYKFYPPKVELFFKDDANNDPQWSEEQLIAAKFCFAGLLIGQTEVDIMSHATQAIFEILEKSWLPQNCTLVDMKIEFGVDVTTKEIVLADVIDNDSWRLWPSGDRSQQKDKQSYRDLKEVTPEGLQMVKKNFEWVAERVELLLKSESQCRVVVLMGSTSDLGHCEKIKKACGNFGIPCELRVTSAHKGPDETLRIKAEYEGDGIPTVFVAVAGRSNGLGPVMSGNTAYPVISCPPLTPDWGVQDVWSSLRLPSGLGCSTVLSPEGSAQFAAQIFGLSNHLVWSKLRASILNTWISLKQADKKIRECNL

The target of another experiment is Activin receptor type-2B (Homo sapiens, UniProt Q13705).
Chain of Activin receptor type-2B (Q13705 whole entry, the tested form may be a part): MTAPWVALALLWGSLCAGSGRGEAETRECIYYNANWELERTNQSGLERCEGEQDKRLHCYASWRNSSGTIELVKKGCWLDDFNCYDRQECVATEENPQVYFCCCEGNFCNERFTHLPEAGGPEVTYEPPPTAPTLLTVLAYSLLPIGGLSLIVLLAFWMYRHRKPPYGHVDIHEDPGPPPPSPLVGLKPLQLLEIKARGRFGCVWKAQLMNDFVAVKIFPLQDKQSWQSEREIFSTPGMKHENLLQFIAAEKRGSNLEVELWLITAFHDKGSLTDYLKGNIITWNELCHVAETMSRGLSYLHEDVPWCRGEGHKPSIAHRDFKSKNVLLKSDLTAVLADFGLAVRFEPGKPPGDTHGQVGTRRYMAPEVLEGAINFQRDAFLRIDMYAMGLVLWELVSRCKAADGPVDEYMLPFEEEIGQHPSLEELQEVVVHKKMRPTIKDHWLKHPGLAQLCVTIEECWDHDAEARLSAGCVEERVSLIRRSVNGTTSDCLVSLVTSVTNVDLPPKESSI
The target in experiment [7] is T5, AarF domain-containing protein kinase 1 (Homo sapiens, UniProt Q86TW2).
T5 sequence (Q86TW2 whole entry): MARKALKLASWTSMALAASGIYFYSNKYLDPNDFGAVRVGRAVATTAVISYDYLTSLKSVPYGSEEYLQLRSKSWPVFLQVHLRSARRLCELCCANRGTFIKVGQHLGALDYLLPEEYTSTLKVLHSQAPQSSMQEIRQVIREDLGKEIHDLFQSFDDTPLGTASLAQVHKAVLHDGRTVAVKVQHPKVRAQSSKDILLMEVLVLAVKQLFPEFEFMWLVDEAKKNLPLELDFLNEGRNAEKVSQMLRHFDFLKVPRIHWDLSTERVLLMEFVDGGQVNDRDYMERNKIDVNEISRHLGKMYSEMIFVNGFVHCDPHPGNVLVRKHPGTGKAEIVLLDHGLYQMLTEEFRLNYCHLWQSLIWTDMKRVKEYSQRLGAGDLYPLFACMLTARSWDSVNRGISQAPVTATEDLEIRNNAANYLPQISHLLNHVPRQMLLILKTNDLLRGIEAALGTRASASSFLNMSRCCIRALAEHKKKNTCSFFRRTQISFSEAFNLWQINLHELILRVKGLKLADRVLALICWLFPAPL
Also: in the data inactive means no Kd found up to 30 µM.

Chain of Tyrosine-protein kinase FRK (P42685 whole entry): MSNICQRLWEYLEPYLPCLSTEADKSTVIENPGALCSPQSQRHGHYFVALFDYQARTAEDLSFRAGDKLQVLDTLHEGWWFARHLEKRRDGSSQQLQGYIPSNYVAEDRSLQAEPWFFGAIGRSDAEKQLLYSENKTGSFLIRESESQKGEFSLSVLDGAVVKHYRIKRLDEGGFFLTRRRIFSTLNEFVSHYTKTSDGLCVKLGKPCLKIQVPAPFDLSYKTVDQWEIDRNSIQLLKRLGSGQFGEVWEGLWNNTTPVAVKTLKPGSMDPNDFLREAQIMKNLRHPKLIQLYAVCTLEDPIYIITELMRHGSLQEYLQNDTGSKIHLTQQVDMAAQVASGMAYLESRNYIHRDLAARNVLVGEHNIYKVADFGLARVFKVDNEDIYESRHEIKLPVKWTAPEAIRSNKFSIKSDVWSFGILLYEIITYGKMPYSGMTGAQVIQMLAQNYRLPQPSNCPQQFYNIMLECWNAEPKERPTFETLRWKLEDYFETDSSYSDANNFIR

As to `Cn1cc(-c2ccc3nnc(C(F)(F)c4ccc5ncccc5c4)n3n2)cn1` [JNJ-38877605], the Kd (in experiment [1]; in [2]; in experiment [3]; in experiment [4]; in [5]; on GTP-binding protein 4) was > 30 µM (inactive) throughout. Further, the Kd (in experiment [6]; at Activin receptor type-2B; in [7]) was > 30 µM (inactive) each time.

As for `Cc1ccc(-n2nc(C(C)(C)C)cc2NC(=O)NCc2cc(F)ccc2Oc2ccc3c(cnn3CCO)c2)cc1` [PEXMETINIB], the Kd in experiment [1] is 1.55 µM (active); in experiment [2] it was > 30 µM (inactive); in experiment [3], > 30 µM (inactive); in experiment [4], > 30 µM (inactive); in experiment [5] it was > 30 µM (inactive); at GTP-binding protein 4, > 30 µM (inactive). The Kd (in experiment [6]; on Activin receptor type-2B; in experiment [7]) was > 30 µM (inactive) in each case.

Take `Cc1c(F)cc(C(=O)NC2CC2)cc1-c1ccc(C(=O)NCC(C)(C)C)cn1` [LOSMAPIMOD]: the Kd (in [1]; in [2]; in experiment [3]; in experiment [4]; in [5]; on GTP-binding protein 4) was > 30 µM (inactive) throughout. Further, the Kd (in experiment [6]; at Activin receptor type-2B; in experiment [7]) was > 30 µM (inactive) each time.

For the compound `COc1cc(N2CCC(N3CCN(C)CC3)CC2)ccc1Nc1ncnc(Nc2ccccc2S(=O)(=O)C(C)C)n1` [ASP-3026], the Kd in experiment [1] was 0.39 µM (active); in experiment [2] it was > 30 µM (inactive); in experiment [3], > 30 µM (inactive); in experiment [4] it was > 30 µM (inactive); in [5], > 30 µM (inactive); at GTP-binding protein 4, 0.009 µM. Further, the Kd (in [6]; at Activin receptor type-2B; in experiment [7]) was > 30 µM (inactive) each time.

Turning to `CNC(=O)c1ccc(C)c(-n2c(C)cc(OCc3ccc(F)cc3F)c(Br)c2=O)c1` [PH-797804], the Kd (in experiment [1]; in [2]; in experiment [3]; in experiment [4]; in [5]; at GTP-binding protein 4) was > 30 µM (inactive) each time. The Kd (in experiment [6]; on Activin receptor type-2B; in [7]) was > 30 µM (inactive) in each case.

Turning to `C[C@@H](c1ccc2nccn2c1)n1nnc2ncc(-c3cnn(C)c3)nc21` [SAVOLITINIB], the Kd (in experiment [1]; in [2]; in [3]; in experiment [4]; in experiment [5]; on GTP-binding protein 4) was > 30 µM (inactive) throughout. In addition, the Kd (in experiment [6]; at Activin receptor type-2B; in experiment [7]) was > 30 µM (inactive) in each case.

Regarding `CN1CCC(COc2cnc(-c3cccc(Cn4nc(-c5cccc(C#N)c5)ccc4=O)c3)nc2)CC1` [TEPOTINIB], the Kd (in experiment [1]; in [2]; in experiment [3]; in experiment [4]; in experiment [5]; at GTP-binding protein 4) was > 30 µM (inactive) each time. The Kd (in experiment [6]; at Activin receptor type-2B; in experiment [7]) was > 30 µM (inactive) in each case.

On to `CCc1cnn2c(NCc3ccc[n+]([O-])c3)cc(N3CCCC[C@H]3CCO)nc12` [DINACICLIB], for which the Kd (in experiment [1]; in [2]; in experiment [3]; in [4]; in [5]; at GTP-binding protein 4) was > 30 µM (inactive) throughout. Besides, the Kd (in experiment [6]; on Activin receptor type-2B; in experiment [7]) was > 30 µM (inactive) each time.

As to `CNC(=O)c1cc(Oc2ccc(NC(=O)Nc3ccc(Cl)c(C(F)(F)F)c3)c(F)c2)ccn1` [REGORAFENIB], the Kd (in experiment [1]; in [2]; in [3]; in experiment [4]; in experiment [5]; at GTP-binding protein 4) was > 30 µM (inactive) in each case. Also, the Kd (in [6]; on Activin receptor type-2B; in [7]) was > 30 µM (inactive) each time.

`CCCS(=O)(=O)Nc1ccc(F)c(C(=O)c2c[nH]c3ncc(-c4ccc(Cl)cc4)cc23)c1F` [VEMURAFENIB]: the Kd (in experiment [1]; in experiment [2]; in experiment [3]; in experiment [4]; in [5]; at GTP-binding protein 4) was > 30 µM (inactive) throughout. The Kd (in experiment [6]; at Activin receptor type-2B; in experiment [7]) was > 30 µM (inactive) each time.

On to `N[C@@H]1CCCN(c2c(/C=C3\SC(=O)NC3=O)cccc2-c2ccccc2)C1`, for which the Kd (in [1]; in [2]; in experiment [3]; in experiment [4]; in experiment [5]; on GTP-binding protein 4) was > 30 µM (inactive) each time. Besides, the Kd (in experiment [6]; at Activin receptor type-2B; in experiment [7]) was > 30 µM (inactive) throughout.

Turning to `O=C(O)[C@]1(Cc2cccc(Nc3nccs3)n2)CC[C@@H](Oc2cccc(Cl)c2F)CC1` [MK-5108], the Kd is 0.724 µM (active) in experiment [1]; > 30 µM (inactive) in [2]; > 30 µM (inactive) in [3]; > 30 µM (inactive) in [4]; > 30 µM (inactive) in experiment [5]; > 30 µM (inactive) at GTP-binding protein 4. In addition, the Kd (in [6]; on Activin receptor type-2B; in experiment [7]) was > 30 µM (inactive) in each case.

The values are drawn from ChEMBL document CHEMBL3991601, “The target landscape of clinical kinase drugs” (Science, 2017).
